In the NIST ThermoML archive (doi:10.1007/s10765-006-0093-7):
Numbers after ± are expanded uncertainties.

Conditions: Gas, Hot wire method

[Ar] [argon]
Conditions | thermal conductivity [W/m/K]
304.8 K, 1020 kPa | 0.01821 ± 0.00045
304.8 K, 1560 kPa | 0.01835 ± 0.00045
304.8 K, 2320 kPa | 0.01869 ± 0.00046
304.8 K, 2590 kPa | 0.01877 ± 0.00046
304.8 K, 4470 kPa | 0.01959 ± 0.00048
329 K, 1200 kPa | 0.0193 ± 0.00048
329 K, 1270 kPa | 0.01953 ± 0.00048
329 K, 1960 kPa | 0.01978 ± 0.00049
329 K, 2340 kPa | 0.01995 ± 0.00049
329 K, 3030 kPa | 0.02016 ± 0.0005
329 K, 3630 kPa | 0.0203 ± 0.0005
329 K, 5980 kPa | 0.02118 ± 0.00052
329 K, 7320 kPa | 0.02192 ± 0.00054
360.05 K, 1240 kPa | 0.02086 ± 0.00051
360.05 K, 1560 kPa | 0.02098 ± 0.00051
360.05 K, 1640 kPa | 0.02104 ± 0.00051
360.05 K, 2240 kPa | 0.02129 ± 0.00052
360.05 K, 3200 kPa | 0.02158 ± 0.00053
360.05 K, 4160 kPa | 0.02192 ± 0.00054
360.05 K, 8720 kPa | 0.0239 ± 0.00059
389.3 K, 1390 kPa | 0.02227 ± 0.00054
389.3 K, 2140 kPa | 0.02255 ± 0.00055
389.3 K, 2780 kPa | 0.02276 ± 0.00055
389.3 K, 3330 kPa | 0.02288 ± 0.00056
389.3 K, 3560 kPa | 0.02304 ± 0.00056
389.3 K, 4190 kPa | 0.02323 ± 0.00057
389.3 K, 5350 kPa | 0.02353 ± 0.00057
389.3 K, 6050 kPa | 0.02385 ± 0.00058
389.3 K, 6660 kPa | 0.02405 ± 0.00059
389.3 K, 7500 kPa | 0.0243 ± 0.00059
389.3 K, 8260 kPa | 0.02466 ± 0.0006
389.3 K, 8500 kPa | 0.02463 ± 0.0006
417.5 K, 1210 kPa | 0.02336 ± 0.00057
417.5 K, 1400 kPa | 0.02343 ± 0.00057
417.5 K, 2110 kPa | 0.02369 ± 0.00057
417.5 K, 2740 kPa | 0.02395 ± 0.00058
417.5 K, 3420 kPa | 0.02415 ± 0.00059
417.5 K, 4130 kPa | 0.02432 ± 0.00059
417.5 K, 4800 kPa | 0.02459 ± 0.0006
417.5 K, 5470 kPa | 0.02478 ± 0.0006
417.5 K, 6180 kPa | 0.02504 ± 0.00061
417.5 K, 6890 kPa | 0.02521 ± 0.00061
417.5 K, 7580 kPa | 0.0256 ± 0.00062
417.5 K, 8270 kPa | 0.02577 ± 0.00063
475.7 K, 1090 kPa | 0.02562 ± 0.00062
475.7 K, 1410 kPa | 0.02575 ± 0.00062
475.7 K, 2120 kPa | 0.02608 ± 0.00063
475.7 K, 2790 kPa | 0.02636 ± 0.00064
475.7 K, 3520 kPa | 0.02652 ± 0.00064
475.7 K, 4250 kPa | 0.02683 ± 0.00065
475.7 K, 5010 kPa | 0.02692 ± 0.00065
475.7 K, 6100 kPa | 0.02742 ± 0.00066
475.7 K, 7980 kPa | 0.02789 ± 0.00068
